Test results taken from US20230077362A1 (CORTEVA AGRISCIENCE LLC, priority 2019, published 2023).
Like-named read-outs stand apart in the source and are kept apart here.

How the values were obtained:
Format in all cases: in vivo
[1] = system: Cabbage Looper (Trichoplusia ni) ("CL"), second instar larvae; assay: Bioassay on cabbage looper (CL), 128-well diet tray assay; conditions: Trichoplusia ni
Summary of the method: (§1)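 Mortality (%) is scored well by well after five to seven days at 25° C. on a 14:10 light:dark regime. The value given is the mean of eight wells.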

[2] = system: Beet Armyworm (Spodoptera exigua) ("BAW"), second instar larvae; assay: Bioassay on beet armyworm (BAW), 128-well diet tray assay; conditions: Spodoptera exigua
Summary of the method: as §1

[3] = system: Green Peach Aphid ("GPA") (Myzus persicae), wingless adult and nymph stages; assay: Bioassay on green peach aphid (GPA), foliar spray on infested cabbage seedlings; conditions: Myzus persicae, foliar, 72 h
Experimental: Certain molecules disclosed in this document were tested against GPA using procedures described in the following example. In the reporting of the results, the “GPA Rating Table” was used (See Table Section).
Cabbage seedlings grown in 3-inch pots, with 2-3 small (3-5 cm) true leaves, were used as test substrate. The seedlings were infested with 20-50 GPA (wingless adult and nymph stages) one day prior to chemical application. Four pots with individual seedlings were used for each treatment. Test compounds (2 mg) were dissolved in 2 mL of acetone/methanol (1:1) solvent, forming stock solutions of 1000 ppm test compound. […] A hand-held aspirator-type sprayer was used for spraying a solution to both sides of […] leaves until runoff. Reference plants (solvent check) were sprayed with the diluent only containing 20% by volume of acetone/methanol (1:1) solvent. Treated plants were held in a holding room for three days at approximately 25° C. and ambient relative humidity (RH) prior to grading. Evaluation was conducted by counting the number of live aphids per plant under a microscope.
Corrected % Control=100*(X−Y)/X • where • X=No. of live aphids on solvent check plants and • Y=No. of live aphids on treated plants
The results are indicated in the table entitled “Table ABC: Biological Results” (See Table Section).

[4] = read-out: CL (Biological Results, rating)
[5] = read-out: BAW (Biological Results, rating)
[6] = read-out: GPA (Biological Results, rating)

Row | Structure (SMILES) | pest or weed control at 50 µg/cm2 [1, 4] [%] | pest or weed control at 50 µg/cm2 [2, 5] [%] | pest or weed control at 200 µg/mL [3, 6] [%] | pest or weed control at 50 µg/cm2 ([1]; read-out: CL rating) [%] | pest or weed control at 50 µg/cm2 ([2]; read-out: BAW rating) [%] | pest or weed control at 200 µg/mL ([3]; read-out: GPA rating) [%]
1 | Cc1cc(-c2ncn(-c3cccc(C(F)(F)F)c3)n2)ccc1NC(=O)/N=C1\SCC(=O)N1c1cc(N(C)C)ccc1C(C)C [Compound J133, (Z)-1-(3-(5-(Dimethylamino)-2-isopropylphenyl)-4-oxothiazolidin-2-ylidene)-3-(2-methyl-4-(1-(3-(trifluoromethyl)phenyl)-1H-1,2,4-triazol-3-yl)phenyl)urea] | 50 to 100 | 50 to 100 | 0 to 80 | – | – | –
2 | Cc1ccc(OCCCC(F)(F)F)c(N2C(=O)CS/C2=N\C(=O)Nc2ccc(-c3ncn(-c4ccc(SC(F)(F)F)cc4)n3)cc2F)c1 [Compound J225, (Z)-1-(2-Fluoro-4-(1-(4-((trifluoromethyl)thio)phenyl)-1H-1,2,4-triazol-3-yl)phenyl)-3-(3-(5-methyl-2-(4,4,4-trifluorobutoxy)phenyl)-4-oxothiazolidin-2-ylidene)urea] | 50 to 100 | 50 to 100 | 0 to 80 | – | – | –
3 | CNc1ccc(C(C)C)c(N2C(=O)CS/C2=N\C(=O)Nc2ccc(-c3ncn(-c4ccc(OC(F)(F)F)cc4)n3)cc2C)c1 [Compound J126, (Z)-1-(3-(2-Isopropyl-5-(methylamino)phenyl)-4-oxothiazolidin-2-ylidene)-3-(2-methyl-4-(1-(4-(trifluoromethoxy)phenyl)-1H-1,2,4-triazol-3-yl)phenyl)urea] | 50 to 100 | 50 to 100 | 0 to 80 | – | – | –
4 | COc1ccc(C(C)C)c(N2C(=O)CS/C2=N\C(=O)Nc2ccc(-c3ncn(-c4cccc(C(F)(F)F)c4)n3)cc2F)c1 [Compound J152, (Z)-1-(2-Fluoro-4-(1-(3-(trifluoromethyl)phenyl)-1H-1,2,4-triazol-3-yl)phenyl)-3-(3-(2-isopropyl-5-methoxyphenyl)-4-oxothiazolidin-2-ylidene)urea] | 50 to 100 | 50 to 100 | 0 to 80 | – | – | –
5 | Cc1ccc(COCC(F)(F)F)c(N2C(=O)CS/C2=N\C(=O)Nc2ccc(-c3ncn(-c4ccc(S(=O)(=O)C(F)(F)F)cc4)n3)cc2C)c1 [Compound J365, (Z)-1-(3-(5-Methyl-2-((2,2,2-trifluoroethoxy)methyl)phenyl)-4-oxothiazolidin-2-ylidene)-3-(2-methyl-4-(1-(4-((trifluoromethyl)sulfonyl)phenyl)-1H-1,2,4-triazol-3-yl)phenyl)urea] | – | – | – | 50 to 100 | 50 to 100 | 0 to 80
6 | Cc1ccc(COCC(F)(F)F)c(N2C(=O)CS/C2=N\C(=O)Nc2ccc(-c3ncn(-c4ccc(C(F)F)cc4)n3)cc2C)c1 [Compound J684, (Z)-1-(4-(1-(4-(Difluoromethyl)phenyl)-1H-1,2,4-triazol-3-yl)-2-methylphenyl)-3-(3-(5-methyl-2-((2,2,2-trifluoroethoxy)methyl)phenyl)-4-oxothiazolidin-2-ylidene)urea] | – | – | – | 50 to 100 | 50 to 100 | 0 to 80
7 | COC(c1ccc(C)cc1N1C(=O)CS/C1=N\C(=O)Nc1ccc(-c2ncn(-c3ccc(OC(F)(F)F)cc3)n2)cc1F)C(F)(F)F (stereo not drawn) [Compound J181, (Z)-1-(2-Fluoro-4-(1-(4-(trifluoromethoxy)phenyl)-1H-1,2,4-triazol-3-yl)phenyl)-3-(3-(5-methyl-2-(2,2,2-trifluoro-1-methoxyethyl)phenyl)-4-oxothiazolidin-2-ylidene)urea] | 50 to 100 | 50 to 100 | 0 to 80 | – | – | –
8 | COc1ccc(C(C)C)c(N2C(=O)CS/C2=N\C(=O)Nc2ccc(-c3ncn(-c4cccc(C(F)(F)F)c4)n3)cc2C)c1 [Compound J132, (Z)-1-(3-(2-Isopropyl-5-methoxyphenyl)-4-oxothiazolidin-2-ylidene)-3-(2-methyl-4-(1-(3-(trifluoromethyl)phenyl)-1H-1,2,4-triazol-3-yl)phenyl)urea] | 50 to 100 | 50 to 100 | 0 to 80 | – | – | –
9 | CCc1cc(-c2ncn(-c3ccc(OC(F)(F)F)cc3)n2)ccc1NC(=O)/N=C1\SCC(=O)N1c1cc(C)ccc1C(C)OC (stereo not drawn) [Compound J74, (Z)-1-(2-Ethyl-4-(1-(4-(trifluoromethoxy)phenyl)-1H-1,2,4-triazol-3-yl)phenyl)-3-(3-(2-(1-methoxyethyl)-5-methylphenyl)-4-oxothiazolidin-2-ylidene)urea] | 50 to 100 | 50 to 100 | 0 to 80 | – | – | –
10 | CC(=O)c1ccc(C(C)C)c(N2C(=O)CS/C2=N\C(=O)Nc2ccc(-c3ncn(-c4ccc(OC(F)(F)F)cc4)n3)cc2F)c1 [Compound J77, (Z)-1-(3-(5-Acetyl-2-isopropylphenyl)-4-oxothiazolidin-2-ylidene)-3-(2-fluoro-4-(1-(4-(trifluoromethoxy)phenyl)-1H-1,2,4-triazol-3-yl)phenyl)urea] | 50 to 100 | 50 to 100 | 0 to 80 | – | – | –
11 | CN(C)c1ccc(OCCC(F)(F)F)c(N2C(=O)CS/C2=N\C(=O)Nc2ccc(-c3ncn(-c4ccc(OC(F)(F)F)cc4)n3)cc2F)c1 [Compound J105, (Z)-1-(3-(5-(Dimethylamino)-2-(3,3,3-trifluoropropoxy)phenyl)-4-oxothiazolidin-2-ylidene)-3-(2-fluoro-4-(1-(4-(trifluoromethoxy)phenyl)-1H-1,2,4-triazol-3-yl)phenyl)urea] | 50 to 100 | 50 to 100 | 0 to 80 | – | – | –
12 | Cc1ccc(C(C)C)c(N2C(=O)CS/C2=N\C(=O)Nc2ccc(-c3ncn(-c4cccc(OC(F)(F)F)c4)n3)cc2)c1 [Compound J327, (Z)-1-(3-(2-Isopropyl-5-methylphenyl)-4-oxothiazolidin-2-ylidene)-3-(4-(1-(3-(trifluoromethoxy)phenyl)-1H-1,2,4-triazol-3-yl)phenyl)urea] | 50 to 100 | 50 to 100 | 0 to 80 | – | – | –
13 | Cc1ccc(OCCC(F)(F)F)c(N2C(=O)CS/C2=N\C(=O)Nc2ccc(-c3ncn(-c4cccc(C(F)(F)F)c4)n3)cc2F)c1 [Compound J142, (Z)-1-(2-Fluoro-4-(1-(3-(trifluoromethyl)phenyl)-1H-1,2,4-triazol-3-yl)phenyl)-3-(3-(5-methyl-2-(3,3,3-trifluoropropoxy)phenyl)-4-oxothiazolidin-2-ylidene)urea] | 50 to 100 | 50 to 100 | 0 to 80 | – | – | –
14 | CCc1cc(-c2ncn(-c3ccc(OC(F)(F)F)cc3)n2)ccc1NC(=O)/N=C1\SCC(=O)N1c1cc(C)ccc1OCC(F)(F)F [Compound J75, (Z)-1-(2-Ethyl-4-(1-(4-(trifluoromethoxy)phenyl)-1H-1,2,4-triazol-3-yl)phenyl)-3-(3-(5-methyl-2-(2,2,2-trifluoroethoxy)phenyl)-4-oxothiazolidin-2-ylidene)urea] | 50 to 100 | 50 to 100 | 0 to 80 | – | – | –
